The target in this test is T1, F508delCFTR (Homo sapiens, UniProt P13569, DEL508-508).
T1 construct: expressed in transfected cells; host or cells: CFBE41o- human lung derived epithelial cells (CFBE41o-F508delCFTR-HRP), doxycycline-inducible
The test can be described thus: Cell Surface Expression-Horse Radish Peroxidase (CSE-HRP) Assay.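 As to EC50 (with co-corrector): co-corrector chromenyl benzoic acid corrector at 2 or 3 µM.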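 As to Maximum % activity (without co-corrector): % of on-plate positive control chromenyl benzoic acid corrector at 2 or 3 µM.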 The following applies: for Maximum % activity (with co-corrector) / Emax: maximum at any tested concentration; for Emax: read-out: Maximum % activity (without co-corrector). The class given is cell-based. In short, it runs like this:
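Corrector compounds were given as 8-point 3-fold series from 20 or 30 μM, with or without a 2 μM co-corrector, for 18-24 h at 33 °C. Surface HRP was read by luminol luminescence as % of positive control; variable-Hill-slope sigmoidal fitting gave EC50 from triplicate plates.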

The mark [1] stands for this setting: test compound alone, without co-corrector, read-out: EC50 (without co-corrector).
[2] abbreviates: with co-corrector, read-out: EC50 (with co-corrector).

Read-outs that look alike come from different tables or passages of the source.

T1 sequence (P13569 with tags, fused parts or gaps DEL508-508): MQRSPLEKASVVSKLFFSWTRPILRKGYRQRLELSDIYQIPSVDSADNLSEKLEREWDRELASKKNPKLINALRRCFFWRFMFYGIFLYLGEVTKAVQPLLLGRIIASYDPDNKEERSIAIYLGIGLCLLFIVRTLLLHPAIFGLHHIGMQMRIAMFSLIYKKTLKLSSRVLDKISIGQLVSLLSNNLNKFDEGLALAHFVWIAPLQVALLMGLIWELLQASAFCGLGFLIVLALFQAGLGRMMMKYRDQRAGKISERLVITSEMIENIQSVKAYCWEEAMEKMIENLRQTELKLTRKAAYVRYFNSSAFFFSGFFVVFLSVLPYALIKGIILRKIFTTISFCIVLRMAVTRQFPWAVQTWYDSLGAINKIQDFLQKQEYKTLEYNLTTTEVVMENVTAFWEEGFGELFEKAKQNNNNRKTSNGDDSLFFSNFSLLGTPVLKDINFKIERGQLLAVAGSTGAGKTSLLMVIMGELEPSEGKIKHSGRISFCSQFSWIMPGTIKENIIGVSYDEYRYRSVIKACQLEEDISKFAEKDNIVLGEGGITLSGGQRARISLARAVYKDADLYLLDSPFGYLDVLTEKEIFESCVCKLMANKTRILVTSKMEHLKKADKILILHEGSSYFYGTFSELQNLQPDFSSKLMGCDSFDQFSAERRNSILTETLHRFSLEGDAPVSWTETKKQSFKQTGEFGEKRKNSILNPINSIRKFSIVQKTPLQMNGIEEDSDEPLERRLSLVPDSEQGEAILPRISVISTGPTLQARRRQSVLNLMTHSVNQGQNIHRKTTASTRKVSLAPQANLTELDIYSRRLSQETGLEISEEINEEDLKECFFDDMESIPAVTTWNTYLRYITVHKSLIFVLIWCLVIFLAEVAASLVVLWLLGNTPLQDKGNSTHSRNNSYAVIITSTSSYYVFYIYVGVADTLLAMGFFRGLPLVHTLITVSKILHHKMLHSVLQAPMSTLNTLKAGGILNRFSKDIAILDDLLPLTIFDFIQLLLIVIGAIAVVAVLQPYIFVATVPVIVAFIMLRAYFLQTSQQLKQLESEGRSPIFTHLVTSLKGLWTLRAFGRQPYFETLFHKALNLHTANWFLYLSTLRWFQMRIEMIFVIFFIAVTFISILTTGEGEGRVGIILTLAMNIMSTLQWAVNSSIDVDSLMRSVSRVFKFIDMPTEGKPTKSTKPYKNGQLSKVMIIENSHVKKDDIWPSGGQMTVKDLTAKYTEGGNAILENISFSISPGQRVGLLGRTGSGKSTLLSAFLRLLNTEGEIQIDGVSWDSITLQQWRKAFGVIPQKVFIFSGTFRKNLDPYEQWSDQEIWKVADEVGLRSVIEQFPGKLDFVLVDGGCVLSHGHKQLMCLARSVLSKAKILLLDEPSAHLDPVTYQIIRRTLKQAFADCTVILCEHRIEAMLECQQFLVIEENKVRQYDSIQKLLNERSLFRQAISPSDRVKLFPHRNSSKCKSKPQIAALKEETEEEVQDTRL

On to `COc1ccc(C)c(OC)c1C1(C(=O)NS(=O)(=O)c2cccc3nc(C)ccc23)CC1` [Example I-43, 1-(2,6-dimethoxy-3-methylphenyl)-N-(2-methylquinoline-5-sulfonyl)cyclopropane-1-carboxamide], for which the concentration for a half-maximal effect (EC50) (as a rule, the midpoint of the concentration-response curve) was under 3 µM under setting [1] and under 3 µM under setting [2]. Moreover, the “Maximum % activity (with co-corrector)” value (with co-corrector) is on record as “+++ (≥350)”. Moreover, the Emax (without co-corrector) was over 150%.
Take `COc1ccc(C)cc1C1(C(=O)NS(=O)(=O)c2cccc3ncccc23)CC1` [Example I-44, 1-(2-methoxy-5-methylphenyl)-N-(quinoline-5-sulfonyl)cyclopropane-1-carboxamide]: the half-maximal effective concentration (EC50) was under 3 µM under setting [1] and under 3 µM under setting [2]. The “Maximum % activity (with co-corrector)” value (with co-corrector) was “+++ (≥350)”. Besides, the Emax (without co-corrector) is over 150%.
With `CCOc1cccc(OC)c1C1(C(=O)NS(=O)(=O)c2cccc3ncccc23)CC1` [Example I-45, 1-(2-ethoxy-6-methoxyphenyl)-N-(quinoline-5-sulfonyl)cyclopropane-1-carboxamide], the concentration for a half-maximal effect (EC50) by setting is: under setting [1], under 3 µM; under setting [2], under 3 µM. Besides, the “Maximum % activity (with co-corrector)” value (with co-corrector) was “+++ (≥350)”. The Emax (without co-corrector) was over 150%.
In the case of `COc1cccc(OCC2CC2)c1C1(C(=O)NS(=O)(=O)c2cccc3ncccc23)CC1` [Example I-46, 1-[2-(cyclopropylmethoxy)-6-methoxyphenyl]-N-(quinoline-5-sulfonyl)cyclopropane-1-carboxamide], the EC50 reads like this: under setting [1], under 3 µM; under setting [2], under 3 µM. The “Maximum % activity (with co-corrector)” value (with co-corrector) is on record as “+++ (≥350)”. For the same compound, under “without co-corrector”, the Emax was over 150%.
`COc1ccc(C)c(C)c1C1(C(=O)NS(=O)(=O)c2cccc3ncccc23)CC1` [Example I-47, 1-(6-methoxy-2,3-dimethylphenyl)-N-(quinoline-5-sulfonyl)cyclopropane-1-carboxamide]: the EC50 is under 3 µM under setting [1] and under 3 µM under setting [2]. Also, the “Maximum % activity (with co-corrector)” value (with co-corrector) was “+++ (≥350)”. For the same compound, the Emax (without co-corrector) was over 150%.
On to `COc1ccc(C2CC2)c(C)c1C1(C(=O)NS(=O)(=O)c2cccc3ncccc23)CC1` [Example I-48, 1-(3-cyclopropyl-6-methoxy-2-methylphenyl)-N-(quinoline-5-sulfonyl)cyclopropane-1-carboxamide], for which the half-maximal effective concentration (EC50) is, setting by setting: under setting [1], under 3 µM; under setting [2], under 3 µM. Besides, the “Maximum % activity (with co-corrector)” value (with co-corrector) is on record as “+++ (≥350)”. Where the note is “without co-corrector”, the Emax is over 150%.
For `COc1ccc(C)cc1C1(C(=O)NS(=O)(=O)c2cccc3[nH]ccc23)CC1` [Example I-49, N-(1H-indole-4-sulfonyl)-1-(2-methoxy-5-methylphenyl)cyclopropane-1-carboxamide], the EC50 under setting [1] is under 3 µM and the EC50 under setting [2] is under 3 µM. Also, the “Maximum % activity (with co-corrector)” value (with co-corrector) was “+++ (≥350)”. For the same compound, where the note is “without co-corrector”, the Emax is over 150%.
For `COc1cccc(C(C)C)c1C1(C(=O)NS(=O)(=O)c2cccc3ncccc23)CC1` [Example I-50, 1-[2-methoxy-6-(propan-2-yl)phenyl]-N-(quinoline-5-sulfonyl)cyclopropane-1-carboxamide], the half-maximal effective concentration (EC50) by setting is: under setting [1], under 3 µM; under setting [2], under 3 µM. In addition, the “Maximum % activity (with co-corrector)” value (with co-corrector) was “+++ (≥350)”. In addition, the Emax (without co-corrector) is over 150%.
Regarding `COc1cccc(C2CCC2)c1C1(C(=O)NS(=O)(=O)c2cccc3ncccc23)CC1` [Example I-51, 1-(2-cyclobutyl-6-methoxyphenyl)-N-(quinoline-5-sulfonyl)cyclopropane-1-carboxamide], the EC50 under setting [1] is under 3 µM and the 50% effective concentration (EC50) under setting [2] was under 3 µM. Further, the “Maximum % activity (with co-corrector)” value (with co-corrector) is “+++ (≥350)”. Besides, the Emax (without co-corrector) is over 150%.
Turning to `COc1ccc(C(C)(C)OC)cc1C1(C(=O)NS(=O)(=O)c2cccc3ncccc23)CC1` [Example I-52, 1-[2-methoxy-5-(2-methoxypropan-2-yl)phenyl]-N-(quinoline-5-sulfonyl)cyclopropane-1-carboxamide], the EC50 is, setting by setting: under setting [1], under 3 µM; under setting [2], under 3 µM. Moreover, the “Maximum % activity (with co-corrector)” value (with co-corrector) is on record as “+++ (≥350)”. For the same compound, the Emax (without co-corrector) is over 150%.
In the case of `COc1ccc(C)cc1C1(C(=O)NS(=O)(=O)c2cccc3[nH]ncc23)CC1` [Example I-53, N-(1H-indazole-4-sulfonyl)-1-(2-methoxy-5-methylphenyl)cyclopropane-1-carboxamide], the EC50 is, setting by setting: under setting [1], 3 to 10 µM; under setting [2], under 3 µM. Also, the “Maximum % activity (with co-corrector)” value (with co-corrector) is recorded as “+++ (≥350)”. For the same compound, the Emax (without co-corrector) is over 150%.
Regarding `COc1ccc(C2CCC2)cc1C1(C(=O)NS(=O)(=O)c2cccc3c2CCN3)CC1` [Example I-54, 1-(5-cyclobutyl-2-methoxyphenyl)-N-(2,3-dihydro-1H-indole-4-sulfonyl)cyclopropane-1-carboxamide], the 50% effective concentration (EC50) was under 3 µM under setting [1] and under 3 µM under setting [2]. The “Maximum % activity (with co-corrector)” value (with co-corrector) is given as “+++ (≥350)”. Moreover, the Emax (without co-corrector) was over 150%.
For `COc1ccc(C2CCC2)cc1C1(C(=O)NS(=O)(=O)c2cccc3[nH]ccc23)CC1` [Example I-55, 1-(5-cyclobutyl-2-methoxyphenyl)-N-(1H-indole-4-sulfonyl)cyclopropane-1-carboxamide], the EC50 under setting [1] is under 3 µM and the concentration for a half-maximal effect (EC50) under setting [2] was under 3 µM. Moreover, for the setting “with co-corrector”, the “Maximum % activity (with co-corrector)” value was “+++ (≥350)”. Also, the Emax (without co-corrector) is over 150%.
For the compound `COc1ccc(C2CCC2)cc1C1(C(=O)NS(=O)(=O)c2cccc3[nH]ncc23)CC1` [Example I-56, 1-(5-cyclobutyl-2-methoxyphenyl)-N-(1H-indazole-4-sulfonyl)cyclopropane-1-carboxamide], the EC50 under setting [1] was under 3 µM and the EC50 under setting [2] was under 3 µM. Also, the “Maximum % activity (with co-corrector)” value (with co-corrector) is reported as “+++ (≥350)”. For the same compound, the Emax (without co-corrector) is over 150%.
As to `CN(C)c1ncc(C(F)(F)F)cc1C1(C(=O)NS(=O)(=O)c2cccc3ncccc23)CC1` [Example I-57, 1-[2-(dimethylamino)-5-(trifluoromethyl)pyridin-3-yl]-N-(quinoline-5-sulfonyl)cyclopropane-1-carboxamide], the concentration for a half-maximal effect (EC50) reads like this: under setting [1], under 3 µM; under setting [2], under 3 µM. Besides, for the setting “with co-corrector”, the “Maximum % activity (with co-corrector)” value is given as “+++ (≥350)”. Further, the Emax (without co-corrector) is over 150%.
In the case of `COc1ccc(C2CCC2)cc1C1(C(=O)NS(=O)(=O)c2cccc3c2ccn3C)CC1` [Example I-58, 1-(5-cyclobutyl-2-methoxyphenyl)-N-(1-methyl-1H-indole-4-sulfonyl)cyclopropane-1-carboxamide], the EC50 is, setting by setting: under setting [1], 3 to 10 µM; under setting [2], under 3 µM. In addition, under “with co-corrector”, the “Maximum % activity (with co-corrector)” value is recorded as “+++ (≥350)”. In addition, for the setting “without co-corrector”, the Emax is over 150%.
As to `COc1ccc(C2CCC2)cc1C1(C(=O)NS(=O)(=O)c2cccc3ccn(C)c23)CC1` [Example I-59, 1-(5-cyclobutyl-2-methoxyphenyl)-N-(1-methyl-1H-indole-7-sulfonyl)cyclopropane-1-carboxamide], the EC50 is under 3 µM under setting [1] and under 3 µM under setting [2]. Also, the “Maximum % activity (with co-corrector)” value (with co-corrector) was “+++ (≥350)”. In addition, the Emax (without co-corrector) is over 150%.
As for `COc1ccc(C2CCC2)cc1C1(C(=O)NS(=O)(=O)c2cccc3cnn(C)c23)CC1` [Example I-60, 1-(5-cyclobutyl-2-methoxyphenyl)-N-(1-methyl-1H-indazole-7-sulfonyl)cyclopropane-1-carboxamide], the EC50 runs as follows: under setting [1], under 3 µM; under setting [2], under 3 µM. The “Maximum % activity (with co-corrector)” value (with co-corrector) is reported as “+++ (≥350)”. For the setting “without co-corrector”, the Emax was over 150%.
As to `COc1ccc(C2CCC2)cc1C1(C(=O)NS(=O)(=O)c2cccn3nccc23)CC1` [Example I-61, 1-(5-cyclobutyl-2-methoxyphenyl)-N-(pyrazolo[1,5-a]pyridine-4-sulfonyl)cyclopropane-1-carboxamide], the EC50 under setting [1] is under 3 µM and the 50% effective concentration (EC50) under setting [2] was under 3 µM. Besides, under “with co-corrector”, the “Maximum % activity (with co-corrector)” value is listed as “+++ (≥350)”. Further, the Emax (without co-corrector) was over 150%.
Turning to `COc1ccc(C2CCC2)cc1C1(C(=O)NS(=O)(=O)c2cccc3ccc(C)nc23)CC1` [Example I-62, 1-(5-cyclobutyl-2-methoxyphenyl)-N-(2-methylquinoline-8-sulfonyl)cyclopropane-1-carboxamide], the concentration for a half-maximal effect (EC50) was under 3 µM under setting [1] and under 3 µM under setting [2]. For the same compound, the “Maximum % activity (with co-corrector)” value (with co-corrector) is on record as “+++ (≥350)”. Further, the Emax (without co-corrector) was over 150%.
For the compound `COc1ccc(C2CCC2)cc1C1(C(=O)NS(=O)(=O)c2cccc3nc(C)ccc23)CC1` [Example I-63, 1-(5-cyclobutyl-2-methoxyphenyl)-N-(2-methylquinoline-5-sulfonyl)cyclopropane-1-carboxamide], the EC50 was under 3 µM under setting [1] and under 3 µM under setting [2]. Also, for the setting “with co-corrector”, the “Maximum % activity (with co-corrector)” value is “+++ (≥350)”. In addition, the Emax (without co-corrector) was over 150%.
With `COc1ccc(C)cc1C1(C(=O)NS(=O)(=O)c2cccc3nc(C)ccc23)CC1` [Example I-64, 1-(2-methoxy-5-methylphenyl)-N-(2-methylquinoline-5-sulfonyl)cyclopropane-1-carboxamide], the EC50 under setting [1] is under 3 µM and the EC50 under setting [2] was under 3 µM. Further, the “Maximum % activity (with co-corrector)” value (with co-corrector) is “+++ (≥350)”. The Emax (without co-corrector) is over 150%.
Take `COc1ccc(OC(F)F)cc1C1(C(=O)NS(=O)(=O)c2cccc3ncccc23)CC1` [Example I-65, 1-[5-(difluoromethoxy)-2-methoxyphenyl]-N-(quinoline-5-sulfonyl)cyclopropane-1-carboxamide]: the concentration for a half-maximal effect (EC50) was 3 to 10 µM under setting [1] and under 3 µM under setting [2]. For the setting “with co-corrector”, the “Maximum % activity (with co-corrector)” value is “+++ (≥350)”. Besides, for the setting “without co-corrector”, the Emax was over 150%.
